Reference: US10351501B2, “Gem difluorocompounds as depigmenting or lightening agents” (TFCHEM, priority 2015, dated 2019)

Columns and labels:
[1] = tested on: human tyrosinase; test: HumanLike Tyrosinase Assay kit (Feldan), L-Tyrosine to dopachrome, OD at 490 nm; assay type: biochemical; settings: for OD at 490 nm: 1.12 mM
Method: The efficacy of compound 16 was evaluated by the inhibition of human tyrosinase in tubo and compared to the compound 11.
The assay was performed with a ready-to-use kit from Feldan Inc (Canada): the HumanLike Tyrosinase Assay kit (ref A021-a-001Kit).
The protocol was performed as described in the instructions for use of the manufacturer. Briefly, this kit is intended for the determination of human tyrosinase activity in presence of different inhibitors. The kit measures the conversion of L-Tyrosine into a dopachrome complex absorbing at 490 nm. The time course of the assay is 20 minutes, after which the results are analyzed and compared.
The compounds 11 and 16 have been tested at a final concentration of 1.12 mM.
The measured absorbances at 490 nm are reported in the table 5 and plotted in function of time in the FIG. 1.
Moreover for each compound the efficacy as tyrosinase inhibitor was calculated using the following formula: […]

[2] = Antioxidant activity by the spectrophotometric method of the free radical DPPH•; settings: molar ratio antioxidant/DPPH•; absorbance at T = 30 min
Text: The aim of the study was to evaluate the antioxidant activity of compound 11 by the spectrophotometric method of the free radical DPPH• (2,2-diphenyl-1-picrylhydrazyl). Indeed, antioxidants react with DPPH^• (purple), a stable free radical which is reduced to DPPH-H (yellow), and in consequence, the absorbance is decreased from the DPPH^• radical to the DPPH-H form. The degree of discoloration indicates the scavenging potential of the antioxidant compounds in terms of hydrogen donating ability (Popovici et al. Revue de génie industriel 2009, 4, 25-39).
The tested compounds were: Trolox ((±)-6-hydroxy-2,5,7,8-tetramethylchromane-2-carboxylic acid, Sigma Aldrich), as reference, and compound 11.
A stock solution of DPPH• was prepared at 200 μmol/mL in methanol and diluted in methanol in order to have a final concentration of around 150 μmol/mL to obtain a DO close to 0.9 in a plate of 96 wells. The antioxidant stock solutions were prepared at 1 mg/mL in methanol and the tested solutions were prepared from these antioxidant stock solutions as described in Table 7 below.
50 μL of each solution of antioxidant was added to the wells. Then, 200 μL of DPPH^• was added to each well.
The blank was prepared with only 250 μl of methanol and the negative control was prepared with 200 μL DPPH• and 50 μL of methanol.
The analysis was started immediately after the addition of DPPH• lasting for 2 hours (readings every 20 seconds). The absorbance was read at 515 nm. Each experiment was performed three times and had shown that the absorbance decreases while the concentration of antioxidant increased.
The activity of DPPH• is a percentage calculated as the ratio of A/An×100%.
The EC50 is expressed as a molar ratio of antioxidant (compound 11)/DPPH• (Popovici et al. Revue de génie industriel 2009, 4, 25-39). The EC50 was determined from the graph representing the percentage of DPPH• in function of the above mentioned molar ratio (moles of compound 11/moles of DPPH•).
The antioxidant activity of compound 11 was compared to that of Trolox used as a reference (considered as 100%).

[3] = In vitro human skin absorption, Franz diffusion cell: quantification in the receptor fluid (flux); assay type: in vitro ADME; settings: 200 μl at 2 mg/ml in water on human skin explant; receptor fluid T0 h to T24 h
Text: The aim of this study was to evaluate the absorption of compound 11 applied to excised human skin.
In vitro method using a Franz diffusion cell allows measuring the diffusion of chemicals into and across skin.
The tested compound is applied to the surface of a human skin explant separating the two chambers of a Franz diffusion cell. The compound remains on the skin for a specified time under specified conditions. The receptor fluid is sampled at time points throughout the experiment and analyzed for the tested compound. The skin may also be fractioned for separate analysis in epidermis or dermis layers.
The transcutaneous absorption was measured on human skin collected from the abdominoplasty of a single donor. At reception, the skin was defatted and cut in several fragments in order to perform Franz experiment. […]
The tested compounds were quantified, at T0 h and T24 h in the receptor solution bathing the inner surface of the skin (determination of flux), or at T24 h in the fractionated skin extracts (epidermis or dermis). […]
Sampling: 500 μL from the receptor fluid were removed at T0 h (replaced by Ringer solution) and at T24 h. These samples were analyzed by LC-MS/MS method for quantification of compound 11 and deoxyarbutin (results not shown). The quantity measured allowed to calculate a flux and to compare the absorption profile across the skin of compound 11 and deoxyarbutin.

[4] = molecular target: T1, human recombinant tyrosinase (Homo sapiens, UniProt P14679); test: Inhibition of human tyrosinase in tubo (L-DOPA substrate, OD at 477 nm), IC50; assay type: biochemical; settings: Tyrosinase Concentration 300 U/mL
T1 sequence (P14679 19-529): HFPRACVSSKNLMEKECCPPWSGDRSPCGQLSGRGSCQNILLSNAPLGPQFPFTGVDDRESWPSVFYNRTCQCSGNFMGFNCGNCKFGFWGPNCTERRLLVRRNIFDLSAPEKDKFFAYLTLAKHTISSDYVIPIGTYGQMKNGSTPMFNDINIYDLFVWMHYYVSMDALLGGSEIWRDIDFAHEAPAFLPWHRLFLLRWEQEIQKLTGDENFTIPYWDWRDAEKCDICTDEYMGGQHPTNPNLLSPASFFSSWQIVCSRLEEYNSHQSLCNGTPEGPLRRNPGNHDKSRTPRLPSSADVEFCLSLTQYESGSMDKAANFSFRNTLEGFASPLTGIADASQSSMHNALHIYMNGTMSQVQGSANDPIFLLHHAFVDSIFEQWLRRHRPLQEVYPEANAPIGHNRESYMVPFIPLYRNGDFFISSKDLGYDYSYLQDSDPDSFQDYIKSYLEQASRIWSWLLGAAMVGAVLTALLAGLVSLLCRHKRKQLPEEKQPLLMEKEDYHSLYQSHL
Method: Substrate solution: L-DOPA (1 mg/mL) Solution B (L-DOPA 20 mg/Purified water up to 20 mL)
Preparation of Test Solutions (for IC50 Test—Examples for Deoxyarbutin)
Inhibitors solutions deoxyarbutin (1 mg/mL): Deoxyarbutin 20 mg in purified water up to 20 mL
This assay used a 96-well plate. Test solutions and controls were made several times.
The results were calculated from the OD measured at time point 20 min.
The determination of half maximal inhibitory concentration (IC50) was performed using the following formula.

[5] = In vitro stability: hydroquinone released in various chemical conditions (HPLC-UV/DAD); assay type: physicochemical
Method: The stability of compound 11 was evaluated by the released of hydroquinone, which is a potentially toxic compound, in different chemical conditions (extreme conditions, simulating the application of these molecules on the skin) and it was compared to the deoxyarbutin.
This study involved different tests as degradation test and chemical stability (various chemical solutions, pH and temperatures).
Analytical Method (HPLC-UV/DAD Method)
Column Atlantis dC18 150 mm*4.6 mm*3 μm Waters, 30° C. Injection 50 μl, 25° C. λ: 220 nm, 265 nm, 285 nm. A-Acetonitrile B-Water; 0.8 ml/min; elution gradient: […]
This analytical method gave linear response for compound 11, Deoxyarbutin and Hydroquinone from 25 ng/mL to 1000 ng/mL. Dilution of samples had to be taken into account for each stability study to calculate the LLOQ of each compound.
The tested compounds are incubated in different solutions, at different times (see table 1). Then the analytical method was used to quantify remaining compounds and potential hydroquinone released (as possible degradation of compounds).
Hydroquinone (HQ) apparition is expressed as a percentage of initial compound 11 or Deoxyarbutin. The calculation was done in molar units and the limit of quantification fluctuates with the initial concentration.

Oc1ccc(OC2CC(O)CCC2(F)F)cc1 (stereo not shown) [Compound 16]
OD at 490 nm ([1]; time 0 min): 0.0000
OD at 490 nm ([1]; time 1 min): 0.0105
OD at 490 nm ([1]; time 2 min): 0.0185
OD at 490 nm ([1]; time 3 min): 0.0285
OD at 490 nm ([1]; time 4 min): 0.0385
OD at 490 nm ([1]; time 5 min): 0.0505
OD at 490 nm ([1]; time 6 min): 0.0605
OD at 490 nm ([1]; time 7 min): 0.0720
OD at 490 nm ([1]; time 8 min): 0.0815
OD at 490 nm ([1]; time 9 min): 0.0925
OD at 490 nm ([1]; time 10 min): 0.1025
OD at 490 nm ([1]; time 11 min): 0.1125
OD at 490 nm ([1]; time 12 min): 0.1225
OD at 490 nm ([1]; time 13 min): 0.1330
OD at 490 nm ([1]; time 14 min): 0.1435
OD at 490 nm ([1]; time 15 min): 0.1545
OD at 490 nm ([1]; time 16 min): 0.1650
OD at 490 nm ([1]; time 17 min): 0.1765
OD at 490 nm ([1]; time 18 min): 0.1885
OD at 490 nm ([1]; time 19 min): 0.2000
OD at 490 nm ([1]; time 20 min): 0.2115
Inhibitor efficacy (%) ([1]; Compound at 1.12 mM, T = 20 min): 13.7%

Cc1c(C)c2c(c(C)c1O)CCC(C)(C(=O)O)O2 (racemic) [Trolox, (±)-6-hydroxy-2,5,7,8-tetramethylchromane-2-carboxylic acid, reference compound]
EC50 (Ratio antioxidant/DPPH•) Mean [2]: 0.240

Oc1ccc(OC2CCCCO2)cc1 (stereo not shown) [Deoxyarbutin, reference compound]
Flux, mean (n = 3) [3]: 3.98 μg/h/cm^2
Calculated IC50 Mean ([4]; mean of 4 tests): 53 µg/mL
IC50 ([4]; read-out: IC50): 272 µM
Calculated IC50 Test #1 ([4]; time 20 min): 26 µg/mL
Calculated IC50 Test #2 ([4]; time 20 min): 45 µg/mL
Calculated IC50 Test #3 ([4]; time 20 min): 80 µg/mL
Calculated IC50 Test #4 ([4]; time 20 min): 60 µg/mL
% Hydroquinone released ([5]; Ringer's solution pH 5.5 at 70° C., 24 H): 11.83%
% Hydroquinone released ([5]; Ringer's solution pH 8.5 at 70° C., 24 H): 88.76%
% Hydroquinone released ([5]; Synthetic perspiration at RT, 48 H): 128.61%
% Hydroquinone released ([5]; Water at room temperature, 14 Days): 4.20%
